Values of other authors, collected in patent publication US20260355228A1, “TREATMENT OF FAMILIAL ADENOMATOUS POLYOPSIS USING A 13-MEMBERED MACROLIDE” (ZIKANI THERAPEUTICS, INC., priority 2022, published 2026).

Key:
[1] = test system: APC gene nonsense mutations in colorectal cancer cell lines; settings: colorectal cancer cell lines [23, 24]
[2] = test system: APC (SW1417 colon carcinoma cells); settings: SW1417 cells [23]
[3] = test system: APC gene nonsense mutations in in vivo colon carcinoma models; settings: in vivo colon carcinoma models [23]
[4] = test system: human colorectal xenografts possessing APC nonsense mutations; settings: xenografts possessing APC nonsense mutations [23, 24]
mouse model of FAP = mouse model of FAP [23, 24]
APC L360X stop codon = settings: luciferase based reporter vector [40]
[5] = test system: FAP patients harboring APC nonsense mutations; settings: clinical study, FAP patients [25]

Row | Molecule | suppression of nonsense mutations / translation termination in the APC gene [1] | read-through of the nonsense mutation leading to synthesis of full-length, active APC protein [2] | suppression of translation termination generated by nonsense mutations in the APC gene [3] | in vivo growth of human colorectal xenografts [4] | number of intestinal polyps (mouse model of FAP) | susceptibility of the L360X stop codon to read-through (APC L360X stop codon) | adenoma burden [5]
1 | CC[C@H]1OC(=O)C[C@@H](O)[C@H](C)[C@@H](O[C@@H]2O[C@H](C)[C@@H](O[C@H]3C[C@@](C)(O)[C@@H](O)[C@H](C)O3)[C@H](N(C)C)[C@H]2O)[C@@H](CC=O)C[C@@H](C)C(=O)/C=C/C(C)=C/[C@@H]1CO[C@@H]1O[C@H](C)[C@@H](O)[C@@H](OC)[C@H]1OC [tylosin] | can suppress translation termination generated by nonsense mutations in the APC gene | low level of full-length, active APC protein | can suppress translation termination generated by nonsense mutations in the APC gene | – | – | – | –
2 | gentamicin | suppressed nonsense mutations in the APC gene in human colon carcinoma cells | – | – | inhibited the in vivo growth of human colorectal xenografts | reduced the number of intestinal polyps | most susceptible | –
3 | CC[C@H]1OC(=O)[C@H](C)[C@@H](O[C@H]2C[C@@](C)(OC)[C@@H](O)[C@H](C)O2)[C@H](C)[C@@H](O[C@@H]2O[C@H](C)C[C@H](N(C)C)[C@H]2O)[C@](C)(O)C[C@@H](C)C(=O)[C@H](C)[C@@H](O)[C@]1(C)O [erythromycin] | suppressed nonsense mutations in the APC gene in human colon carcinoma cells | – | – | inhibited the in vivo growth of human colorectal xenografts | reduced the number of intestinal polyps | – | decrease in adenoma burden
